The source of these data is patent US20200323219A1, “BIOLOGICAL FUNGICIDE COMPOSED BY PLANT EXTRACTS” (JH Biotech Inc., priority 2019, published 2020).

SMILES strings stand for the structures.

The subject of assay [1] is Alternaria brassicicola. As to conditions: cited from earlier work.
Assay [2] deals with Magnaporthe grisea (teleomorph: Pyricularia oryzae). Particulars: 1000 ppm; cited from earlier work.
The subject of another assay is Acidovorax citrulli. Particulars: cited from earlier work.
The test system of a further assay is Ralstonia solanacearum. As to conditions: cited from earlier work.
For assay [3], the system named is Xanthomonas euvesicatoria. As to conditions: cited from earlier work.
Assay [4] concerns Alternaria brassicicola. In words: Conidial germination of Alternaria brassicicola on slides in a moist chamber. The format is cell-based. As to conditions: 24 hours; for Conidial germination rate (%) in different diluted condition 1000X: diluted 1000 times; for Conidial germination rate (%) in different diluted condition 1500X: diluted 1500 times; for Conidial germination rate (%) in different diluted condition 2000X: diluted 2000 times. On the procedure: The tables differ only in how the gallnut and myrobalan are presented. For Table 1-1, gallnut and myrobalan are presented in vol % as described earlier for the Row 6 procedure while Table 1-2 presents the active ingredients of gallnut and myrobalan as concentration (grams/ml). One drop of 20 μl of pathogen conidia suspension (100 conidia per microliter) was mixed with one drop of 20 μl for each of the eight combinations of gallnut and myrobalan formulations, and at dilutions of 750 times, 1000 times, and 1500 times. Each combination was placed on test slides that were maintained at 100% relative humidity at room temperature. The germination rate of 100 conidia on each slide was calculated visually using a microscope following an incubation period of 24 hours. Tables 2-1 and 2-2 show the same plant extract formulations as in Table 1 but including the addition of a surfactant; specifically, either yucca plant extract (Yucca […]) or sodium lauryl sulfate (SLS). Each was added for testing conidial germinations of Alternaria brassicicola. Dilutions were at 1000 times, 1500 times and 2000 times water. 10 vol % of yucca extract or 5 wt. % of SLS was added to the formulations and then used to test the inhibitory effects on conidial germination on the same fungal pathogen Alternaria brassicicola.

Where [5] appears, read: Table 2-2, with surfactant (gms/ml per 100 ml).

Take `O=C(O)c1cc(O)c(O)c(O)c1` [gallic acid, 3,4,5-trihydroxybenzoic acid]: the “inhibition of conidial germination” value in the assay on Alternaria brassicicola [1] is “effectively inhibit”. Also, in assay [2], the conidial germination result is “stop” and the “intrusive behavior of the germinated conidia” value is on record as “stop”.
As for `COC(=O)c1cc(O)c(O)c(O)c1` [methyl gallate], the “kill or inhibit the pathogen” value (in the assay with Acidovorax citrulli; with Ralstonia solanacearum; in assay [3]) was “kill or inhibit” in each case. For the same molecule, the conidial germination entry in assay [2] is “stop”. Further, the “intrusive behavior of the germinated conidia” value in assay [2] is given as “stop”.
Turning to `CCCCCCCCCCCCOS(=O)(=O)[O-].[Na+]` [sodium lauryl sulfate], in the assay with Alternaria brassicicola [4] (Table 2-1, with surfactant), the “Conidial germination rate (%) in different diluted condition 1000X” value is recorded as 55%, the “Conidial germination rate (%) in different diluted condition 1500X” value stood at 90% and the “Conidial germination rate (%) in different diluted condition 2000X” value was 94%. For the same molecule, in the assay with Alternaria brassicicola [4] (setting [5]), the “Conidial germination rate (%) in different diluted condition 1000X” value worked out at 55%, the “Conidial germination rate (%) in different diluted condition 1500X” value came to 90% and the “Conidial germination rate (%) in different diluted condition 2000X” value is 94%.
